# Literature values, collected in patent US4112071A, “Antibiotic complex” (priority 1977, dated 1978).
# Assays:
# [1] = test system: several animal tumor systems; conditions: J. Antibiotics, April 1974, 254-259
# [2] = test system: animal and human cancers; conditions: Cancer Chemother. Rep., Part 1, 58, 255 (1974)
smiles,measurement,setting,value
CC(=O)[C@]1(O)Cc2c(O)c3c(c(O)c2[C@@H](O[C@H]2C[C@H](N)[C@H](O)[C@H](C)O2)C1)C(=O)c1c(O)cccc1C3=O [carminomycin I],activity against several animal tumor systems,[1],active
same,antitumor activity in a variety of animal and human cancers,[2],promising antitumor activity
